Test results reported in PMC4674339 (European journal of medicinal chemistry, 2015).
Entries after “also recorded” stand apart in the source; their conditions may differ. Read-outs that look alike come from different tables or passages of the source.

Key:
[1] = molecular target: human P2Y6 receptors (Homo sapiens, UniProt Q15077); experiment: Effect on human P2Y6 receptors; conditions: data not shown
[2] = test system: ADP induced human platelet aggregation; experiment: ADP induced human platelet aggregation by optical aggregometry; type: cell-based; conditions: 25 and 100 nM; pre-incubation 0, 5, 15 min; data not shown
[3] = test system: GPIIb-IIIa and P-selectin on the surface of human platelets; experiment: Reversibility of inhibition of activation marker expression after dilution; type: cell-based; conditions: 30 min with 10 nM, then 100x dilution with platelet poor plasma; 20 μM ADP
[4] = test system: ADP induced human platelet aggregation; experiment: ADP-induced human platelet aggregation, 96-well microplate method; type: cell-based
[5] = molecular target: T1, platelet P2X1 receptors (Homo sapiens, UniProt P51575); experiment: P2X1-mediated entry of extracellular Ca2+; type: cell-based
T1 sequence (P51575 1-399): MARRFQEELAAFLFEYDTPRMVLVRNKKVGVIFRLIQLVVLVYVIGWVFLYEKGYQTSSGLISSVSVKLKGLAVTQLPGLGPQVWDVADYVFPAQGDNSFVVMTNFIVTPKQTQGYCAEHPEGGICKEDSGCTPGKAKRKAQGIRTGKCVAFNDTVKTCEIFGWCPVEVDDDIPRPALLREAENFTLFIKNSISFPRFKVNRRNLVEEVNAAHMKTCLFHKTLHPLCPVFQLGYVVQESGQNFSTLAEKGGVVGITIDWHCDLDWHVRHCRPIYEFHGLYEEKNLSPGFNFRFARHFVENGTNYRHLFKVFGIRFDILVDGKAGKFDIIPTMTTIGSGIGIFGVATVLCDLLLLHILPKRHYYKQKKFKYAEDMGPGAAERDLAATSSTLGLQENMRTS

[6] = molecular target: human P2Y4 receptors (Homo sapiens, UniProt P51582); experiment: Effect on human P2Y4 receptors; conditions: data not shown
human P2Y4 receptors, sequence (P51582 whole entry): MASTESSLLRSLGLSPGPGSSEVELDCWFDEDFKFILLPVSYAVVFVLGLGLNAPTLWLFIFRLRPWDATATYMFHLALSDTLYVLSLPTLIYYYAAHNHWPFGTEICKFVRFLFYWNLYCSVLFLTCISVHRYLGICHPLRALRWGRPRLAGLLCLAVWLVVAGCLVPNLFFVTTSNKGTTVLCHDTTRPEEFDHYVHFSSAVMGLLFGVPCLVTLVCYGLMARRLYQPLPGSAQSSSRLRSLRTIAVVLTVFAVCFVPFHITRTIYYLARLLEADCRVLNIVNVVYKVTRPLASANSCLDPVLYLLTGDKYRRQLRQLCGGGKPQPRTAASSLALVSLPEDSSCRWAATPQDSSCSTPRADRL

[7] = molecular target: human P2Y2 receptors (Homo sapiens, UniProt P41231); experiment: Effect on human P2Y2 receptors; conditions: data not shown
human P2Y2 receptors, sequence (P41231 whole entry): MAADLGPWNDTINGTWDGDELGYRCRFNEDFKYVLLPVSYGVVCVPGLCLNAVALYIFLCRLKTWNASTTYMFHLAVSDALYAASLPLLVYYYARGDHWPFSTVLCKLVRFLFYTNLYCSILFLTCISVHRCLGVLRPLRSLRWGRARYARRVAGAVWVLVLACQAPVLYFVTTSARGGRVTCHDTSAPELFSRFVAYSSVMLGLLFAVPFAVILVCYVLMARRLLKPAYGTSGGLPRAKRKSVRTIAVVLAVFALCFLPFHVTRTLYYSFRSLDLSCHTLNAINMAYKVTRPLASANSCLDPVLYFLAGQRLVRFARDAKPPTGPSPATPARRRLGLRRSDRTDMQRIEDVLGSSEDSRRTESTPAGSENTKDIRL

[8] = molecular target: human platelet P2Y1 receptors (Homo sapiens, UniProt P47900); conditions: 3 μM ADP; human whole blood; N=3 unless stated
human platelet P2Y1 receptors, sequence (P47900 whole entry): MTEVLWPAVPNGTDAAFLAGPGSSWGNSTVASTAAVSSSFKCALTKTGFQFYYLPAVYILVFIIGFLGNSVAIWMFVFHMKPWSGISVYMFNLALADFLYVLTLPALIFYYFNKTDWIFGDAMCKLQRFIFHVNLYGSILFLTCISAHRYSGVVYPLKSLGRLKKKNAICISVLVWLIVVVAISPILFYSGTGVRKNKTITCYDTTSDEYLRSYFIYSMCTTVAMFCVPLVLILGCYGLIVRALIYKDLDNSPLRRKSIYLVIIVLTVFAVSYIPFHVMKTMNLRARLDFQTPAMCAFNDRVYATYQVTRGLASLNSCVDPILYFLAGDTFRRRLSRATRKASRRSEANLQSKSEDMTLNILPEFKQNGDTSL

human P2Y6 receptors, sequence (Q15077 whole entry): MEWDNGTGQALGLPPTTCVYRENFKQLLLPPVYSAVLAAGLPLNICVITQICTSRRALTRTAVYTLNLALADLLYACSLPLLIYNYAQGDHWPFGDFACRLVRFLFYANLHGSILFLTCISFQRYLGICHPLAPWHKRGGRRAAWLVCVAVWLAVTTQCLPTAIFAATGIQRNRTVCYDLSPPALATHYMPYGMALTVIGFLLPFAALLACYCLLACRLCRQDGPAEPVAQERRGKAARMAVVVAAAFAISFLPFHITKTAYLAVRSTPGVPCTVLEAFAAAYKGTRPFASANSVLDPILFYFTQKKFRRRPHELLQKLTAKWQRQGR

SMILES	Effect on human P2Y6 receptors [1]	Pre-incubation time for full pre-incubation effect [2] [min]	Recovery of ability to express the activation markers after dilution [3]	IC50 ([4]; read-out: IC50, nM (95% Confidence Interval), no pre-incubation, 3 μM ADP) [nM]	IC50 ([4]; read-out: IC50, nM (95% Confidence Interval), pre-incubation with test compound, 5 μM ADP) [nM]	IC50 ([4]; read-out: IC50, nM (95% Confidence Interval), pre-incubation with test compound, 20 μM ADP) [nM]	P2X1 agonist activity [5]	Effect on human P2Y4 receptors [6]	Effect on human P2Y2 receptors [7]	P2Y1 inhibition IC50±SEM [8]
CSc1nc(N)c2ncn([C@@H]3O[C@H](COP(=O)([S-])OP(=O)([O-])C(Cl)P(=O)([O-])OP(=O)([S-])OC[C@H]4O[C@@H](n5cnc6c(N)nc(SC)nc65)[C@H](O)[C@@H]4O)[C@@H](O)[C@H]3O)c2n1.[Na+].[Na+].[Na+].[Na+] (mixture of isomers) [Compound 5, P^1,P^4-di-(2-methylthio-5′-adenosine) P^1,P^4-dithio-P^2,P^3-chloromethylenetetraphosphate]	did not have an effect	≤ 15	80–90%	36.1	11.6	27.6	practically devoid of agonist activity; also recorded: did not have an effect	did not have an effect	did not have an effect	
CSCCNc1nc(SCCC(F)(F)F)nc2c1ncn2[C@@H]1O[C@H](COP(=O)(O)OP(=O)(O)C(Cl)(Cl)P(=O)(O)O)[C@@H](O)[C@H]1O [Cangrelor]										Not inhibitor
